Laboratory results: US20080076772A1, “Anti-Inflammatory Agents” (Pharma Mar S.A. Sociedad Unipersonal, priority 2004, published 2008)

Experiments:
IL-6 = IL-6 release in TAM (ELISA); format: cell-based; details: Homo sapiens, n=4
Excerpt: (§1) Tumour-associated macrophages (TAM) and tumour cells were isolated from the ascitic fluid of patients with diagnosed ovarian adenocarcinoma, admitted to the Clinic of Obstetrics and Gynecology of the University of Milan-Bicocca, S Gerardo Hospital. Cells contained in the ascitic fluid were centrifuged and isolated by differential density gradients of Ficoll and Percoll, and plastic adherence as previously described (see Allavena, P., Peccatori, F., Maggioni, D., Erroi, A., Sironi, M., Colombo, N., Lissoni, A., Galazka, A., Meiers, W., Mangioni, C., et al. Intraperitoneal recombinant gamma-interferon in patients with recurrent ascitic ovarian carcinoma: modulation of cytotoxicity and cytokine production in tumour-associated effectors and of major histocompatibility antigen expression on tumour cells. Cancer Res, 50: 7318-7323, 1990). Purity of TAM and tumour cell preparations was usually>65±10% as defined by morphology and phenotype analysis. Cells were treated with ecteinascidin 743 at the indicated concentrations and cultured for 1-5 days, as specified in figure legends. […]
Supernatants of untreated cells or cells treated with ecteinascidin 743 or other anti-neoplastic agents were collected after 24 h culture and frozen. […] Determination of cytokines CCL2, TNF and IL-6 was measured by specific ELISA following the manufacturer's instructions. […]

blood monocytes = assay: in vitro
Protocol: (§2) Purified populations of human blood monocytes were prepared as previously described by differential density centrifugation on Ficoll and Percoll gradients (see Allavena, P., Piemonti, L., Longoni, D., Bernasconi, S., Stoppacciaro, A., Ruco, L., and Mantovani, A. IL-10 prevents the differentiation of monocytes to dendritic cells but promotes their maturation to macrophages. Eur J Immunol, 28: 359-369, 1998). […] Human thymocytes were isolated from resected thymus from pediatric patients undergoing surgery. Thymocytes were obtained by teasing and isolated on Percoll gradient.
(§3) Cells were cultured at 10^6 cells/ml in complete medium RPMI (Biochrom, Berlin, FRG)+10% FCS (Hyclone, Logan, Utah). In vitro differentiated macrophages were obtained by culture of monocytes Monocyte-Colony Stimulating Factor (M-CSF) Peprotech (20 ng/ml), for 5 days. In some experiments, macrophages were treated with LPS (100 ng/ml) Sigma Aldrich, IFN gamma (500 IU/ml) or IL-4 (20 ng/ml) (Schering Plough) for 24 h.
(§4) Cell viability was analyzed by DNA content in Flow Cytometry
(§5) Cells exposed to treatments were fixed with ethanol 70%, washed in PBS and stained with propidium iodide (PI) solution containing 10 ug/ml PI in PBS and 25 μl RNAse 10,000 units, overnight in the dark. PI incorporation was evaluated on at least 20,000 cells/sample using a FACS Calibur instrument (Becton Dickinson, Sunnyvale, Calif., USA), with a bandpass filter at 620 nm. Apoptosis was detected by staining with AnnexinV and PI. FACS analysis was performed using a bandpass filter 530 and 620 nm for green (AnnexinV) and red (PI) fluorescence respectively, in combination with a […] dichroic mirror.
(§6) Purified preparations of blood monocytes, lymphocytes and thymocytes were cultured with different concentrations of ecteinascidin 743 for 48 h. Cell viability was assessed by DNA analysis and propidium iodide (PI) staining in Flow cytometry.
(§7) A kinetics analysis of the cytotoxic effect of ecteinascidin 743 was performed in the presence of M-CSF. Cells were treated with M-CSF (20 ng/ml) and different concentrations of ecteinascidin 743. Samples were collected at the indicated times and tested for DNA analysis.
(§8) Viability was assessed by PI staining and analyzed by Flow Cytometry.

in vitro = details: human
Protocol: as §2, §3, §4, §5, §6, §7, §8

TNF [1] = assay: TNF production by LPS-stimulated TAM (ELISA); format: cell-based, human; details: LPS 100 ng/ml, 16 h incubation, up to 10 nM
Protocol: (§9) Monocytes, macrophages and TAM were stimulated with 100 ng/ml LPS to induce maximal cytokine production. Determination of cytokines CCL2, TNF and IL-6 was measured by specific ELISA following the manufacturer's instructions.
(§10) To verify whether the inhibitory effect of ecteinascidin 743 on cytokine production was at the transcriptional level, we analyzed mRNA of CCL2 and TNF from LPS-stimulated macrophages by real time-PCR of CCL2 and TNF transcripts in LPS-stimulated monocytes exposed to ecteinascidin 743.

TNF [2] = assay: TNF production by LPS-stimulated monocytes (ELISA); format: cell-based, human; details: LPS 100 ng/ml, 16 h incubation
Protocol: as §9, §10
CCL2 and TNF production by LPS-stimulated monocytes treated with the indicated doses of the anti-tumor agents was also tested. […] […] None of these compounds interfered with the production of TNF.

CCL2 = assay: Constitutive CCL2 production by freshly isolated ovarian tumour cells (ELISA); format: cell-based, human; details: 16 h
Excerpt: as §1
Monocytes, macrophages and TAM were stimulated with 100 ng/ml LPS to induce maximal cytokine production. Determination of cytokines CCL2, TNF and IL-6 was measured by specific ELISA following the manufacturer's instructions. […]

`COc1cc2c(cc1O)CCN[C@]21CS[C@@H]2c3c(OC(C)=O)c(C)c4c(c3[C@H](COC1=O)N1[C@@H]2[C@H]2c3c(cc(C)c(OC)c3O)C[C@@H]([C@@H]1O)N2C)OCO4` [ecteinascidin 743] showed an inhibition at 0.005 µM (IL-6; 5 nM) of 35%, an inhibition at 0.01 µM (IL-6; 10 nM) of 47% and a monocyte death (blood monocytes; 5 nM, 48 h incubation, with M-CSF) of 30%. It also gave a monocyte death (blood monocytes; 5 nM, 48 h incubation, without M-CSF) of 55%, a monocyte death (blood monocytes; 10 nM, 24 h treatment, with M-CSF) of 35% and a monocyte death (blood monocytes; 10 nM, 24 h treatment, without M-CSF) of 65%. For the same compound, the IC50 (blood monocytes; Homo sapiens, Monocyte, 48 h, read-out: lethal dose 50% (IC50), monocyte mortality) was 2.5 to 5 nM, the mortality at 0.0025 µM (blood monocytes; Homo sapiens, Monocyte, 120 h, read-out: mortality of monocytes) was 40 to 50% and the “toxicity on monocytes (kinetics)” value (blood monocytes; higher concentrations, after 24 h incubation, M-CSF 20 ng/ml) was “significant toxicity”. For the same compound, the viability at 5 days, 0.0005 µM (in vitro) was 92%, the viability at 5 days, 0.001 µM (in vitro) was 70% and the “production of TNF by TAM” value (TNF [1]) was “never inhibited”. For the same compound, the “production of TNF by monocytes” value (TNF [2]) was “never inhibited” and the “constitutive production of CCL2 by freshly isolated tumour cells” value (CCL2) was “reduced”.
